Common to all, as to assay type: in vivo, guinea pigs
Test [1] concerns bronchospasms elicited by acetylcholine. In words: Bronchodilator activity against bronchospasm elicited by intravenous acetylcholine, Konzett procedure. Conditions: Cavia porcellus; guinea pig, acetylcholine spasmogen, three logarithmic cumulative intravenous doses. As to the method: (§1) The compounds of this invention are useful as bronchodilators for the treatment of asthma and chronic bronchitis. Bronchodilator activity is determined in guinea pigs against bronchospasms elicited by intravenous injections of 5-hydroxytryptamine, histamine or acetylcholine by the Konzett procedure. [See J. Lulling, P. Lievens, F. El Sayed and J. Prignot, Arzneimittel-Forschung, 18, 995 (1968).]
(§2) In Table which follows bronchodilator activity for representative compounds of this invention against one or more of three spasmogenic agents is expressed as an ED50 determined from the results obtained with three logarithmic cummulative intravenous doses. In this assay, these compounds of this invention provide an effect of longer duration than does natural l-PGE1 or l-PGE2.

Test [2] deals with bronchospasms elicited by 5-hydroxytryptamine. In words: Bronchodilator activity against bronchospasm elicited by intravenous 5-hydroxytryptamine, Konzett procedure. Conditions: Cavia porcellus; guinea pig, 5-hydroxytryptamine spasmogen, three logarithmic cumulative intravenous doses; read-out: ED50 5HT. As to the method: as §1, §2
Test [3] deals with bronchospasms elicited by histamine. Nature of the test: Bronchodilator activity against bronchospasm elicited by intravenous histamine, Konzett procedure. Conditions: Cavia porcellus; guinea pig, histamine spasmogen, three logarithmic cumulative intravenous doses. As to the method:
as §1, §2

SMILES strings stand for the structures.

As for `C=CC(O)(C/C=C/[C@@H]1[C@H]2CC(CCCCC(=O)CO)O[C@H]2C[C@H]1O)CCCC` (relative stereo) [11a, 16-Dihydroxy-6,9a (epoxy)-1-hydroxymethyl-1-oxo-16-vinyl-13-trans-prostene], the ED50 (in general, the dose that gives a 50% effect, or the effect in half of the subjects) in test [1] amounted to 0.0032 mg/kg; in test [2], 0.0276 mg/kg; in test [3] it was 0.00146 mg/kg.
`CCCCC(C)(O)C/C=C/[C@@H]1[C@H]2CC(C(I)CCCC(=O)OC)O[C@H]2C[C@H]1O` (relative stereo) [dl 11α,16-Dihydroxy-6,9α-epoxy-5-iodo-16-methyl-13-trans-prostenoic acid methyl ester]: the ED50 in test [1] is 0.0065 mg/kg; in test [2] it was 0.004 mg/kg; in test [3] it was 0.0069 mg/kg.
With `CCCCC(C)(O)C/C=C/[C@@H]1[C@H]2CC(CCCCC(=O)OC)O[C@H]2C[C@H]1O` (relative stereo) [dl 11α,16-Dihydroxy-6,9α-epoxy-16-methyl-13-trans-prostenoic acid methyl ester], the 50% effective dose (ED50) worked out at 0.146 mg/kg in test [1], 0.0925 mg/kg in test [2] and 0.111 mg/kg in test [3].
On to `C=CC(O)(C/C=C/[C@@H]1[C@H]2CC(CCCCC(=O)OC)O[C@H]2C[C@H]1O)CCCC` (relative stereo) [dl 11α,16-Dihydroxy-6,9α-epoxy-16-vinyl-13-trans-prostenoic acid methyl ester], for which the median effective dose (ED50) in test [1] was 0.0491 mg/kg; in test [2], 0.0367 mg/kg; in test [3], 0.0254 mg/kg.

The values are drawn from patent US4265904A, “Prostacyclin analogs of the 1 series and related analogs” (American Cyanamid Company, priority 1979, dated 1981).
